Patent publication US20060135422A1, “Use of angiotensin receptor blockers (ARBs) to treat diseases associated with excess ACE” (priority 2003, published 2006)
“Also recorded” adds a separate entry of the source. Like-named read-outs stand apart in the source and are kept apart here.

Legend:
tACE = tACE (Homo sapiens, UniProt P12821); conditions: cited from earlier work
[1] = cited from earlier work
ACE [2] = molecular target: T1, ACE (Homo sapiens, UniProt P12821); conditions: binding affinity, from [27]; cited from earlier work
serum ACE = molecular target: T2, serum ACE (Homo sapiens, UniProt P12821); conditions: cited from earlier work
T2 construct: host or cells: serum

[3] = tested on: West Nile virus encephalitis; assay: case series: West Nile virus encephalitis treated with angiotensin II receptor blockade; type: in vivo, human; conditions: for clinical outcome: patient 8, person with chronic lymphocytic leukemia, intravenous enalapril then losartan 50 mg daily
Procedure: Table 2. […] A person with past history of tremors was admitted with fever, stiff neck, severe confusion, and gross tremors to a hospital in Omaha, Nebr. one night. Their serum was positive for IgM reactive to West Nile virus. They were begun on olmesartan 20 mg daily. […] They were discharged home on olmesartan 20 mg daily. • 2. A person with hypertension treated with a beta-blocker/thiazide combination drug, was admitted to a hospital in Omaha, Nebr. with right leg paralysis and paresthesias and weakness in their left leg. Their serum was positive for IgM reactive to West Nile virus. They were begun on losartan 50 mg daily. […] A person with a history of seizures was admitted one night to a hospital in Omaha, Nebr. with a fever and a grand mal seizure. They had been taking olmesartan 20 mg daily for mild hypertension. Their serum was positive for IgM reactive to West Nile virus. […] Their usual dose of olmesartan 20 mg daily was resumed thereafter. […] A person was admitted with fever, stiff neck, and severe confusion to a hospital in Omaha, Nebr. Their serum was positive for IgM antibodies reactive to West Nile virus. They were begun on losartan 50 mg daily. […] A person was admitted with fever, stiff neck, and severe confusion to a hospital in Omaha, Nebr. Their serum was positive for IgM antibodies reactive to West Nile virus. They were begun on losartan 50 mg daily. […] A person was admitted with fever, stiff neck, and severe confusion to a hospital in Pueblo, CO. Their serum was positive for IgM antibodies reactive to West Nile virus. They were begun on losartan 50 mg daily. […] A person with chronic lymphocytic leukemia was admitted with fever and obtundation to a hospital in Pueblo, CO. Their serum was positive by EIA for West Nile virus antibodies. […] Head CT and MRI scans were negative.

ACE [4] = molecular target: T1, ACE; conditions: cited from earlier work
[5] = tested on: unresectable pancreatic cancer; assay: case report: unresectable pancreatic cancer, quinapril added; type: in vivo, human; conditions: person, 5-FU and Naitrexone since February 2002, quinapril (60 mg) since November 2002; median survival of similar patients less than 4 months
chronic renal failure = conditions: clinical comparison, from [20]; cited from earlier work
psoriasis = type: in vivo, human; conditions: one person with type II diabetes, quinapril 200 mg/day (2 mg/kg/day); could stop daily methotrexate 75 mg
pulmonary hypertension = conditions: clinical comparison, from [20,22]; cited from earlier work
[6] = type: in vivo, human; conditions: 40 mg po qhs; reduced from 98 mm Hg
Procedure: Because many patients with an autoimmune disease such as alopecia greata, psoriasis, rheumatoid arthritis, multiple sclerosis, etc. are normotensive or even relatively hypotensive, an ACE inhibitor may not be the best choice for them. They might not be able to tolerate a sufficiently high dose of an ACE inhibitor, certainly any dose approaching 2 mg/kg/day. Instead, an AT1 receptor blocker appears to be effective at doses which cause minimal blood pressure (BP) reduction. […]

alopecia areata = assay: case reports: alopecia areata treated with an ARB; type: in vivo, human
[7] = pH 7.4, active moiety, calculated from [23]
[8] = pH 7.4, active moiety, calculated from [24]
[9] = patient 2, losartan 50 mg daily

T1 sequence (P12821 30-1306): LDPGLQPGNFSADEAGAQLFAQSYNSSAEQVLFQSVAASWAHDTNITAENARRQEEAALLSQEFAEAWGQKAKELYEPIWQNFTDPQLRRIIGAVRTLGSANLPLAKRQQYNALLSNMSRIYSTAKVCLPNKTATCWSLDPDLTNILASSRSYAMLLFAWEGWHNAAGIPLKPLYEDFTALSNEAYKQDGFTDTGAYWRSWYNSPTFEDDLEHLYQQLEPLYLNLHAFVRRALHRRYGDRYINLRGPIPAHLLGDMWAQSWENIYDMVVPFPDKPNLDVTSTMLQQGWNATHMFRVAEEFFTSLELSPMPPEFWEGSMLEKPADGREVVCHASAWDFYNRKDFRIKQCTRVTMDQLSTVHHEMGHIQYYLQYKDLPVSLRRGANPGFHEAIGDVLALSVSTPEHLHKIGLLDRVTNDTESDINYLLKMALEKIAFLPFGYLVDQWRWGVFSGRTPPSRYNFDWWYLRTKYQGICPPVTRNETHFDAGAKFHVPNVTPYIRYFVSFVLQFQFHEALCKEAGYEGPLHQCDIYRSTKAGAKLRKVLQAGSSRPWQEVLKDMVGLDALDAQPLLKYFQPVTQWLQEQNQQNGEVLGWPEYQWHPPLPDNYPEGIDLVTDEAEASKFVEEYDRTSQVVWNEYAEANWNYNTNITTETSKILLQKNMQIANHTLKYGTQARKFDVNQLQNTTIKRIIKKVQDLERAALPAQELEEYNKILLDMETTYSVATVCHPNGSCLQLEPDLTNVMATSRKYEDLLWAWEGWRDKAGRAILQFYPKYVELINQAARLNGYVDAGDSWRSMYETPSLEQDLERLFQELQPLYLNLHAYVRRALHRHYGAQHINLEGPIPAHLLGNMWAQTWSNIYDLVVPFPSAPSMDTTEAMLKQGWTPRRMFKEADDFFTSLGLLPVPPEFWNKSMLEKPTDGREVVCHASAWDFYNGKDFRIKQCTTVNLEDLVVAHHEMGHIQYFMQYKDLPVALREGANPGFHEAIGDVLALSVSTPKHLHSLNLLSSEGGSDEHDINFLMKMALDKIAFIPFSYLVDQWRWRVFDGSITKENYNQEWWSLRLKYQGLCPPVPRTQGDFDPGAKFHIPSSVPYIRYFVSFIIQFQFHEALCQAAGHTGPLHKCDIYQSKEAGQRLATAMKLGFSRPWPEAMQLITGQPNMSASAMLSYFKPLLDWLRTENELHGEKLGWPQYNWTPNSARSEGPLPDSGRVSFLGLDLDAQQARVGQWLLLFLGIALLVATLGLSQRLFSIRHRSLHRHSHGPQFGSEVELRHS
T2 sequence (P12821 30-1232): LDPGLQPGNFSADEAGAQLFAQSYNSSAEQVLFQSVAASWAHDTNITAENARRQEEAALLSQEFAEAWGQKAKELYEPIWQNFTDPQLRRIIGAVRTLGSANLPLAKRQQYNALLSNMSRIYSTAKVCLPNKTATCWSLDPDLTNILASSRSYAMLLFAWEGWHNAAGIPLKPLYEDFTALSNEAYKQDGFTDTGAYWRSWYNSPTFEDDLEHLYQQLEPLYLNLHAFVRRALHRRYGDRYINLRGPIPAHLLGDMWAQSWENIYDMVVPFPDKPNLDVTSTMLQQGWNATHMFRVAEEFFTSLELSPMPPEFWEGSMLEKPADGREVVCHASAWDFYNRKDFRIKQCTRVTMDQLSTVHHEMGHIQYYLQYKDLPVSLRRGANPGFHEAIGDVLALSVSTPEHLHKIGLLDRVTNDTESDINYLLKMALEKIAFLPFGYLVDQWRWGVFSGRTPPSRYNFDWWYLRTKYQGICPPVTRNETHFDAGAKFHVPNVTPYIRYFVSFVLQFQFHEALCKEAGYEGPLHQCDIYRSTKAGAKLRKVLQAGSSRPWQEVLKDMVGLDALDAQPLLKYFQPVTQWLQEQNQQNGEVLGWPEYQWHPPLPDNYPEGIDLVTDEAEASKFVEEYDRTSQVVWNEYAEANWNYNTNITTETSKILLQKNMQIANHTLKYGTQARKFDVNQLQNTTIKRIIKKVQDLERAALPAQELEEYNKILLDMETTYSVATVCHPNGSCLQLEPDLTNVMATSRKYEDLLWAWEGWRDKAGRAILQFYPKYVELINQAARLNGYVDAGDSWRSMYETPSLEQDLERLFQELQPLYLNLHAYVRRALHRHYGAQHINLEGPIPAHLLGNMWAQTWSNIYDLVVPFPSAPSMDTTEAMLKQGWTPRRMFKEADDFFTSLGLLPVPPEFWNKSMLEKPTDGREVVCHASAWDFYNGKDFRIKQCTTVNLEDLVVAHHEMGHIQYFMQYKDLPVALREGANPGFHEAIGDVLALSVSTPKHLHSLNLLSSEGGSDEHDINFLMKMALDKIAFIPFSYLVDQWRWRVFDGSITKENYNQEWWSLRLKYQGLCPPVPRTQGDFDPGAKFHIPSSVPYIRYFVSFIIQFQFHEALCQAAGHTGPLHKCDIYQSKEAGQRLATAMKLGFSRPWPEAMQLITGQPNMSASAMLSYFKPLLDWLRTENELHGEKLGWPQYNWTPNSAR
Sequence of tACE (P12821 other isoform, or with tags, fused parts or gaps): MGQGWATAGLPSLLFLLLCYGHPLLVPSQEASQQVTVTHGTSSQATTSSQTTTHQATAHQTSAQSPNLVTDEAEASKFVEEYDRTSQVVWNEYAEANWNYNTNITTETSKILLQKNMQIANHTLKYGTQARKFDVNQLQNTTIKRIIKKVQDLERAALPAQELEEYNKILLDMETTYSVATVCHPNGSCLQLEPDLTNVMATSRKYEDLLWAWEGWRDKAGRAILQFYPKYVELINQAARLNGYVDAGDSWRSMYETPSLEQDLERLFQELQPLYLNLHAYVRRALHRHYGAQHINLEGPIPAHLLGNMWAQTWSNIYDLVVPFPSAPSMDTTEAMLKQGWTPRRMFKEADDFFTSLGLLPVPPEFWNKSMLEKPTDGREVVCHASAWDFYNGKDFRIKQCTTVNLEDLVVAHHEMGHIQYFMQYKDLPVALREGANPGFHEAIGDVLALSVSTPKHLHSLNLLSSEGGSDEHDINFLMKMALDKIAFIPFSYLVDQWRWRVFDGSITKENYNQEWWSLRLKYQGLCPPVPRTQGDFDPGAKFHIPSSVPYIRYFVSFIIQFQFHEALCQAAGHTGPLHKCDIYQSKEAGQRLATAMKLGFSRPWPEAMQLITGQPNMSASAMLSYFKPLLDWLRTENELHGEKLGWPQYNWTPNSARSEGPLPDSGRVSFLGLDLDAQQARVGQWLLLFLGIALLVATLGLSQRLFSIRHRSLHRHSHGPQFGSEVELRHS

In the case of `O[C@H](CS)[C@H](O)CS` (racemic) [dithiothreitol], the “inhibition of tACE's activity” value (tACE) is given as 78%.
For `O=C(O)CN1C(=O)[C@@H](N[C@@H](CCc2ccccc2)C(=O)O)CCc2ccccc21` [Benazeprilat], the “P(octanol:water)” value [1, 7] is listed as 3.0.
In the case of `C[C@H](CS)C(=O)N1CCC[C@H]1C(=O)O` [Captopril], the “P(octanol:water)” value [1, 7] is given as 0.01 and the “P(octanol:water)” value [1, 8] is given as 0.004.
In the case of `NCCCC[C@H](OP(=O)(O)CCCCc1ccccc1)C(=O)N1CCC[C@H]1C(=O)O` [Ceronapril], the “P(octanol:water)” value [1, 8] is given as less than 0.001.
For `O=C(O)[C@H](CCc1ccccc1)N[C@H]1CCCN2CCC[C@@H](C(=O)O)N2C1=O` [Cilazaprilat], the “P(octanol:water)” value [1, 7] is given as 1.7.
In the case of `O=C(O)[C@@H]1C[C@@H](C2CCCCC2)CN1C(=O)CP(=O)(O)CCCCc1ccccc1` [Fosinoprilat], the “P(octanol:water)” value [1, 8] is listed as 0.33.
For `CCC[C@H](N[C@@H](C)C(=O)N1[C@H](C(=O)O)C[C@@H]2CCCC[C@@H]21)C(=O)O` [Perindoprilat], the “P(octanol:water)” value [1, 7] is given as 0.44.
For `C[C@H](N[C@@H](CCc1ccccc1)C(=O)O)C(=O)N1Cc2ccccc2C[C@H]1C(=O)O` [Quinaprilat], the “P(octanol:water)” value ([1]; pH 7.4) is given as 6.6.
For `C[C@H](N[C@@H](CCc1ccccc1)C(=O)O)C(=O)N1[C@H](C(=O)O)C[C@@H]2CCC[C@@H]21` [Ramiprilat], the IC50 (ACE [2]) is listed as 0.67 nM, the “P(octanol:water)” value [1, 7] is listed as 2.6 and the “P(octanol:water)” value [1, 8] is listed as 0.011.
In the case of `C[C@H](N[C@@H](CCc1ccccc1)C(=O)O)C(=O)N1[C@H](C(=O)O)C[C@H]2CCCC[C@@H]21` [Trandolaprilat], the “P(octanol:water)” value [1, 7] is given as 10.47.
For `C[C@H](CS)C(=O)N1C[C@@H](Sc2ccccc2)C[C@H]1C(=O)O` [Zofenoprilat], the “P(octanol:water)” value [1, 8] is listed as 0.22.
In the case of `CCOC(=O)[C@H](CCc1ccccc1)N[C@@H](C)C(=O)N1CCC[C@H]1C(=O)O` [enalapril], the “inhibition of serum ACE activity” value (serum ACE) is given as “about 50%”, the clinical outcome [3] is given as “remained in coma” and the off time (ACE [4]) is given as 4 h.
With `CCCCc1nc(Cl)c(CO)n1Cc1ccc(-c2ccccc2-c2nn[nH]n2)cc1` [losartan] the right leg paralysis [3, 9] was “no change”, the “time until paresthesias and weakness in left leg stopped” value [3, 9] was 1 to 2 days and the “time to full recovery” value ([3]; patient 3, losartan 50 mg twice in first 24 hr, usual olmesartan 20 mg daily resumed thereafter) was no more than 12 h. The “time until meningoencephalitis disappeared” value ([3]; patient 4, losartan 50 mg daily) was no more than 48 h, the “time until meningoencephalitis disappeared” value ([3]; patient 5, losartan 50 mg daily) was no more than 48 h and the “time until meningoencephalitis disappeared” value ([3]; patient 6, losartan 50 mg daily) was no more than 24 h. The “time until disappearance of residual weakness and fatigue” value ([3]; patient 7, one month after meningoencephalitis, losartan 50 mg daily) was no more than 24 h and the clinical outcome [3] was “remained in coma”.
For `CCOC(=O)[C@H](CCc1ccccc1)N[C@@H](C)C(=O)N1Cc2ccccc2C[C@H]1C(=O)O` [quinapril], the survival [5] is given as “still alive in November, 2003”, the “effectiveness at delaying the progression of chronic renal failure” value (chronic renal failure) is given as “more effective than ramipril” and the off time (ACE [4]) is given as 24 h. For the same compound, the response of psoriasis (psoriasis) was “put the patient's psoriasis into remission; also recorded: responded dramatically”.
In the case of `CCOC(=O)[C@H](CCc1ccccc1)N[C@@H](C)C(=O)N1[C@H](C(=O)O)C[C@@H]2CCC[C@@H]21` [ramipril], the “inhibition of serum ACE activity” value (serum ACE; from [20]) is given as roughly 100%, the “effectiveness at lowering pulmonary hypertension” value (pulmonary hypertension) is given as “more effective at lowering pulmonary hypertension than enlapril” and the off time (ACE [4]; from [28-30]) is given as 24 h.
In the case of `CCCCC(=O)N(Cc1ccc(-c2ccccc2-c2nnn[nH]2)cc1)[C@H](C(=O)O)C(C)C` [valsartan], the “systolic BP on treatment” value [6] is reported as 90 mm Hg, the “time until scalp hair loss resumed after stopping the ARB” value (alopecia areata; ARB stopped after 1 week, same patient) is reported as 3 to 4 days and the “time until hair loss stopped after starting the ARB” value (alopecia areata; active alopecia areata, child, 40 mg po qhs, n=1) is reported as no more than 36 h. The “time for valsartan to have an effect” value (alopecia areata; more chronic form of alopecia areata, n=1) was “more than 5 days”.
